Data published in paper PMC12349723, “Computationally accelerated identification of P-glycoprotein inhibitors” (PLOS One, 2025).
“And” between values parts separate entries of the source, which are not always exact repeats. Equal values may be shown once. Read-outs that look alike come from different tables or passages of the source.

Tests used:
DU145-TXR cells = assay: MTT viability assay, reversal of MDR (re-sensitization to paclitaxel) in P-gp overexpressing DU145-TXR cells; format: cell-based, human; details: for % Survival, mean / % Survival: 15 µM compound + 500 nM PTX (Paclitaxel, Taxol); for % Survival, mean / % Survival / viability at 15 µM: DU145-TXR; for Re-sensitization of DU145-TXR cells to PTX (reversal of MDR): 15 µM compound with or without 500 nM PTX, 48 h, MTT, re-sensitization = 30% or greater decrease in cell viability; for viability at 15 µM: Homo sapiens, 15 µM Compound Alone
Method in brief: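 MTT viability testing was done on P-gp overexpressing, multidrug resistant DU145-TXR human prostate cancer cells. They were kept in 10 nM paclitaxel and seeded at 3,000 cells per well in complete RPMI. Cells were exposed to compound, with or without paclitaxel, for 48 hours. MTT was then added for 4 hours, formazan was dissolved in DMSO, and absorbance was read at 570 nm. Survival was expressed relative to control-treated cells.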

P-gp = assay: SWISS-ADME prediction of P-gp transport substrate; details: prediction compared to the LC-MS/MS intracellular accumulation data
Source text: Identifying P-gp inhibitors that are not transport substrates remains inherently challenging. To that end, computational tools such as the SWISS-ADME server attempt to use a molecule’s unique chemical and structural characteristics to predict whether it is likely to be a P-gp transport substrate. Our LC-MS/MS assays allowed us to retroactively test the validity of predictions from SWISS-ADME. […] Alternative identifiers for the molecules identified in this study are shown in S7 Table.
S1 Table. Known P-gp Inhibitors and Predicted Chemical Properties. A non-exhaustive list of known P-gp inhibitors and their selected chemical properties ^[64, 65]. Clinical trial outcomes were adapted from ^[10, 11]. Compounds were evaluated using the SWISS-ADME server ^[54]. […] “Predicted P-gp Substrate” - predicted by SWISS-ADME to be a transport substrate of P-gp. “Known P-gp Substrate” – In addition to being P-gp inhibitors, these molecules are: known transport substrates of P-gp, known non-transport substrates of P-gp, unknown whether it is a transport substrate of P-gp ^[66-68]. If the molecule is designated in a specific generation of P-gp inhibitors - First Generation P-gp inhibitors, Second generation P-gp inhibitors, Third generation P-gp inhibitors.

A2780 cells = assay: MTT viability assay, parental A2780 cells, with or without PTX; format: cell-based, human; details: for Increase of PTX toxicity against parental A2780 cells: 15 µM compound with or without 500 nM PTX, 48 h, MTT; for Mean % Survival / % Survival (individual sample): A2780 cells; for Mean % Survival / viability at 15 µM: mean of 8 or 12 samples; for % Survival (individual sample): single samples; for viability at 15 µM: Homo sapiens, A2780, A2780 cells, read-out: Mean % Survival
Method in brief: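 A2780 and doxorubicin-selected (100 nM) P-gp-overexpressing A2780-ADR cells, 3,000/well in RPMI + 10% FBS, were exposed to compounds, with or without chemotherapeutic, for 48 h at 37 °C. MTT read at 570 nm after 4 h; survival expressed as percent of vehicle, or vehicle-plus-chemotherapeutic, control.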

[1] = mean of 8 samples, read-out: % Survival, mean
[2] = trial 1, sample 1, read-out: % Survival
[3] = trial 1, sample 2, read-out: % Survival
[4] = trial 1, sample 3, read-out: % Survival
[5] = trial 1, sample 4, read-out: % Survival
[6] = trial 2, sample 1, read-out: % Survival
[7] = trial 2, sample 2, read-out: % Survival
[8] = trial 2, sample 3, read-out: % Survival
[9] = trial 2, sample 4, read-out: % Survival

Structure (SMILES) | % Survival, mean (DU145-TXR cells; mean of 8 samples) [%] | % Survival (DU145-TXR cells; trial 1, sample 1) [%] | % Survival (DU145-TXR cells; trial 1, sample 2) [%] | % Survival (DU145-TXR cells; trial 1, sample 3) [%] | % Survival (DU145-TXR cells; trial 1, sample 4) [%] | % Survival (DU145-TXR cells; trial 2, sample 1) [%] | % Survival (DU145-TXR cells; trial 2, sample 2) [%] | % Survival (DU145-TXR cells; trial 2, sample 3) [%] | % Survival (DU145-TXR cells; trial 2, sample 4) [%] | Re-sensitization of DU145-TXR cells to PTX (reversal of MDR) (DU145-TXR cells) | viability at 15 µM (DU145-TXR cells; [1]) [%] | viability at 15 µM (DU145-TXR cells; [2]) [%] | viability at 15 µM (DU145-TXR cells; [3]) [%] | viability at 15 µM (DU145-TXR cells; [4]) [%] | viability at 15 µM (DU145-TXR cells; [5]) [%] | viability at 15 µM (DU145-TXR cells; [6]) [%] | viability at 15 µM (DU145-TXR cells; [7]) [%] | viability at 15 µM (DU145-TXR cells; [8]) [%] | viability at 15 µM (DU145-TXR cells; [9]) [%] | Correct P-gp Substrate Prediction? (P-gp) | other results
O=S(=O)(Cc1nc2ccccc2n1CC(O)c1ccc(Cl)cc1)c1ccccc1 (centres unmarked) [Compound 97, OC(Cn1c(CS(=O)(=O)c2ccccc2)nc2ccccc12)c1ccc(Cl)cc1] | 34.9 | 26 | 30 | 24 | 42 | 44 | 41 | 30 | 42 | re-sensitized DU145-TXR cells to PTX | 87.2 | 107 | 82 | 82 | 83 | 77 | 89 | 88 | 90 | Yes | Increase of PTX toxicity against parental A2780 cells (A2780 cells): did not greatly increase the toxicity of PTX against the parental A2780 cells; Mean % Survival (A2780 cells; 15 µM compound + 500 nM PTX): 13.0%; % Survival (individual sample) (A2780 cells; 15 µM compound + 500 nM PTX): 8% and 19%; viability at 15 µM (A2780 cells; 15 µM compound alone): 89.8%
COc1cccc(N2CCN(c3ccc4nnc(CCC(=O)Nc5ccc(F)c(F)c5)n4n3)CC2)c1 [Compound 101, COc1cccc(c1)N1CCN(CC1)c1ccc2nnc(CCC(=O)Nc3ccc(F)c(F)c3)n2n1] | 57.4 | 48 | 48 | 37 | 48 | 83 | 70 | 66 | 58 | re-sensitized DU145-TXR cells to PTX | 112 | 121 | 110 | 111 | 113 | 117 | 106 | 109 | 104 | No | Increase of PTX toxicity against parental A2780 cells (A2780 cells): did not greatly increase the toxicity of PTX against the parental A2780 cells; Mean % Survival (A2780 cells; 15 µM compound + 500 nM PTX): 14.3%; % Survival (individual sample) (A2780 cells; 15 µM compound alone): 64%; viability at 15 µM (A2780 cells; 15 µM compound alone): 91.9%
Cc1ccc(-c2noc(-c3cn(Cc4ccc(NS(=O)(=O)c5ccccc5F)cc4)cn3)n2)cc1 [Compound 103, Cc1ccc(cc1)-c1noc(n1)-c1cn(Cc2ccc(NS(=O)(=O)c3ccccc3F)cc2)cn1] | 19.9 | 11 | 11 | 11 | 14 | 32 | 27 | 27 | 28 | re-sensitized DU145-TXR cells to PTX | 76.4 | 58 | 50 | 48 | 52 | 108 | 104 | 94 | 96 | No | Increase of PTX toxicity against parental A2780 cells (A2780 cells): did not greatly increase the toxicity of PTX against the parental A2780 cells; Mean % Survival (A2780 cells; 15 µM compound + 500 nM PTX): 13.6%; % Survival (individual sample) (A2780 cells; 15 µM compound + 500 nM PTX): 10% and 18% and 19%; % Survival (individual sample) (A2780 cells; 15 µM compound alone): 63%; viability at 15 µM (A2780 cells; 15 µM compound alone): 52.9%
Cc1onc(-c2ccccc2)c1-c1nnc(Cn2cnc3ccccc3c2=O)o1 [Compound 111, Cc1onc(c1-c1nnc(Cn2cnc3ccccc3c2=O)o1)-c1ccccc1] | 41.1 | 30 | 34 | 44 | 39 | 51 | 48 | 46 | 38 | re-sensitized DU145-TXR cells to PTX | 102 | 111 | 93 | 90 | 94 | 106 | 115 | 108 | 103 | No | Increase of PTX toxicity against parental A2780 cells (A2780 cells): did not greatly increase the toxicity of PTX against the parental A2780 cells; Mean % Survival (A2780 cells; 15 µM compound + 500 nM PTX): 14.4%; % Survival (individual sample) (A2780 cells; 15 µM compound + 500 nM PTX): 13%; % Survival (individual sample) (A2780 cells; 15 µM compound alone): 102%; viability at 15 µM (A2780 cells; 15 µM compound alone): 94%
O=C(NCc1cccc(F)c1)c1nnn2c1Sc1c(C(=O)NCc3cccc(F)c3)nnn1CC2 [Compound 122, Fc1cccc(CNC(=O)c2nnn3CCn4nnc(C(=O)NCc5cccc(F)c5)c4Sc23)c1] | 60.4 | 61 | 55 | 61 | 62 | 65 | 63 | 54 | 61 | re-sensitized DU145-TXR cells to PTX | 106 | 102 | 105 | 85 | 102 | 123 | 107 | 106 | 114 | Yes | Increase of PTX toxicity against parental A2780 cells (A2780 cells): did not greatly increase the toxicity of PTX against the parental A2780 cells; Mean % Survival (A2780 cells; 15 µM compound + 500 nM PTX): 13.6%; % Survival (individual sample) (A2780 cells; 15 µM compound + 500 nM PTX): 12% and 14%; viability at 15 µM (A2780 cells; 15 µM compound alone): 76.5%
